Here are results for two molecules from publication PMC8244865, “Recruitment of phospholipase Cγ1 to the non-structural membrane protein pK15 of Kaposi Sarcoma-associated herpesvirus promotes its Src-dependent phosphorylation” (PLoS Pathogens, 2021).

For experiment [1], the system named is PLCγ1 cSH2 domain (in tSH2 aa 545–772). Put plainly: crystal structure with truncated PLCγ1 tSH2, cSH2 site. In kind it is binding. The note with it: truncated tSH2 (aa 545–772), resolution 2.1 Å. Here is the method: A shortened version of the PLCγ1 tSH2 domain (aa 545–772) lacking the linker peptide connecting the PLCγ1 cSH2 and SH3 domains (see Results section) was cloned into a pET28a vector carrying an N-terminal His Tag and a SUMO sequence. Expression was carried out in E. coli and the protein was purified to homogeneity as described above. His-Tag and SUMO were proteolytically removed using SUMO protease (SIGMA) following the manufacturer’s instructions, and the cleaved protein purified on a HisTrap column. Fractions containing cleaved protein were further purified by size exclusion chromatography (SEC) using a Superdex 75 26/600 column (GE Healthcare) equilibrated with 50mM Tris pH7.5, 150mM NaCl and 1mM TCEP buffer. The purified protein in SEC buffer was added to lyophilized phosphorylated 12mer pK15 peptide (DDLpYEEVLFPRN) in a 1:8 molar ratio (Protein: peptide) at a final concentration of 3mg/ml of peptide and 7.5mg/ml protein. Crystals were grown at 293 K using the sitting-drop vapor diffusion method in drops containing 1μl protein solution mixed with 1 μL reservoir solution containing 30% PEG 4000, 0.1M TrisHCl pH 8.5 and 0.2M sodium acetate. The crystals were flash frozen in the mother liquor containing 30% ethylene glycol and diffraction data were collected at P13 at DESY-Hamburg. Data were processed, scaled and reduced with XDS [75], Pointless and programs from the CCP4 suite. […]

The subject of experiment [2] is full length PLCγ1 R586L+R694L. Put plainly: GST-pulldown, full-length PLCγ1 double mutant. The note with it: phosphorylated; binding eliminated for SA domain but not full length. As for the experimental part: Fig 3 Contribution of individual PLCγ1 SH2 domains to the interaction with phosphorylated pK15. The pK15 CT fused to GST, its Y^481F mutant, or GST alone were bound to glutathione beads, phosphorylated in vitro (+) or left unphosphorylated (-), and a GST pulldown was performed 32h after transfection into HEK-293T cells of expression vectors for S-tagged full-length PLCγ1 (FL) (A) or PLCγ1 SA (B) containing the indicated mutations. (C) pK15 CT WT, its Y^481F mutant or GST were bound to glutathione beads, phosphorylated in vitro (+) or left unphosphorylated (-), and used for a GST pulldown assay 32h after transfecting HEK 293T cells with expression vectors for S-tagged individual PLCγ1 nSH2 or cSH2 domains. […]
HEK293T cells were washed once with cold PBS 30 hours after transfection, lysed in IP buffer (50 mM Tris pH7.6, 60 mM NaCl, 6.25 mM EDTA, 1% (v/v) glycerol, 0.04% (v/v) NP-40) on ice for 30 minutes, sonicated shortly and cleared by centrifugation for 10 minutes at 20.000g, 4°C. […] Beads were then washed 5 times in 500 μl IP buffer (or for purified proteins IP buffer with 200 mM NaCl), suspended in 10 μl of 5x Laemmli sample buffer (60 mM Tris pH6.8, 24% (v/v) glycerol, 2% (v/v) SDS, 5% (v/v) β-mercaptoethanol, 0.01% Bromphenol Blue) and analysed by western blot.

Turning to “DDLpYEEVLFPRN [pK15 12mer, phosphorylated peptide representing the last 12 amino acids of pK15 CT (DDLp…)]”, the “binding site occupancy in crystal structure” value in experiment [1] was “unambiguously bound to the PLCγ1 cSH2 domain”.

B1: pK15 CT^WT: pK15 cytoplasmic tail fused to GST at its N-terminal end, phosphorylated in vitro by Src (protein)
chain: SQLLNEVELQEVNRDPPNVFGYASILVSGAEESREPSPQPDQSGMSILRVDGGSAFRIDTAQAATQPTDDLYEEVLFPRN
modifications: tyrosine-phosphorylated in vitro by Src; sites not stated for this construct; left off: GST, N-terminal, kept
As to B1, the “binding of double mutant (GST-pulldown)” value in experiment [2] is “not to full length PLCγ1”.
